Results from ChEMBL document CHEMBL1159260, “Muricatocins A and B, two new bioactive monotetrahydrofuran Annonaceous acetogenins from the leaves of Annona muricata” (J Nat Prod, 1995).
Converted amounts (≈) assume the structure as drawn.

Key:
[1] = Toxicity against brine shrimp; format: organism-based; conditions: artemia, in vivo
[2] = test system: A549; assay: Cytotoxicity against human A549 cells after 7 days by MTT assay; format: functional; conditions: A549, 168 h, read-out: ED50 (the source's name)
[3] = test system: MCF7; assay: Cytotoxicity against human MCF7 cells after 7 days by MTT assay; format: functional; conditions: MCF7, 168 h, read-out: ED50 (the source's name)
[4] = test system: HT-29; assay: Cytotoxicity against human HT-29 cells after 7 days by MTT assay; format: functional; conditions: HT-29, 168 h, read-out: ED50 (the source's name)

| SMILES | LC50 [1] [µg/mL] | EC50 [2] [µg/mL] | EC50 [3] [µg/mL] | EC50 [4] [µg/mL] |
| --- | --- | --- | --- | --- |
| CCCCCCCCCCCC[C@H](O)[C@H]1CC[C@H]([C@H](O)CC[C@H]2C[C@@H](CCCCC[C@@H](O)CC3=C[C@H](C)OC3=O)OC(C)(C)O2)O1 | 0.266 (≈ 0.407 µM) | 0.00718 (≈ 0.011 µM) | 0.878 (≈ 1.34 µM) | > 1 |
| CCCCCCCCCCCC[C@@H](O)[C@H]1CC[C@H]([C@H](O)CC[C@H]2C[C@@H](CCCCC[C@@H](O)CC3=C[C@H](C)OC3=O)OC(C)(C)O2)O1 | 0.206 (≈ 0.315 µM) | 0.00367 (≈ 0.00562 µM) | 0.165 (≈ 0.253 µM) | 0.508 (≈ 0.778 µM) |
| COc1cccc2c1C(=O)c1c(O)c3c(c(O)c1C2=O)C[C@@](O)(C(=O)CO)C[C@@H]3O[C@H]1C[C@H](N)[C@H](O)[C@H](C)O1 [DOXORUBICIN] |  | 0.00356 (≈ 0.00655 µM) | 0.142 (≈ 0.261 µM) |  |
| CCCCCCCCCCCC[C@@H](O)[C@H]1CC[C@H]([C@H](O)CC[C@H](O)C[C@H](O)CCCCC[C@@H](O)CC2=C[C@H](C)OC2=O)O1 [MURICATOCIN A] | 0.699 (≈ 1.14 µM) | 0.0755 (≈ 0.123 µM) | 0.123 (≈ 0.201 µM) | 1.56 (≈ 2.55 µM) |
| CCCCCCCCCCCC[C@H](O)[C@H]1CC[C@H]([C@H](O)CC[C@H](O)C[C@H](O)CCCCC[C@@H](O)CC2=C[C@H](C)OC2=O)O1 [MURICATOCIN B] | 0.557 (≈ 0.909 µM) | 0.334 (≈ 0.545 µM) | 0.103 (≈ 0.168 µM) | 1.66 (≈ 2.71 µM) |
